# Laboratory results: patent US20120115895A1, “TRICYCLIC INDOLE-DERIVED SPIRO DERIVATIVES AS CRTH2 MODULATORS” (Merck Serono S.A., priority 2009, published 2012)
# Assays:
# [1] = biological target: T1, CRTH2 (Homo sapiens, UniProt Q9Y5Y4); test: Radioligand binding Scintillation Proximity Assay ([3H]PGD2, hCRTH2-CHO cell membranes); parameters: host or cells: CHO cells
# T1 sequence (Q9Y5Y4 1-395): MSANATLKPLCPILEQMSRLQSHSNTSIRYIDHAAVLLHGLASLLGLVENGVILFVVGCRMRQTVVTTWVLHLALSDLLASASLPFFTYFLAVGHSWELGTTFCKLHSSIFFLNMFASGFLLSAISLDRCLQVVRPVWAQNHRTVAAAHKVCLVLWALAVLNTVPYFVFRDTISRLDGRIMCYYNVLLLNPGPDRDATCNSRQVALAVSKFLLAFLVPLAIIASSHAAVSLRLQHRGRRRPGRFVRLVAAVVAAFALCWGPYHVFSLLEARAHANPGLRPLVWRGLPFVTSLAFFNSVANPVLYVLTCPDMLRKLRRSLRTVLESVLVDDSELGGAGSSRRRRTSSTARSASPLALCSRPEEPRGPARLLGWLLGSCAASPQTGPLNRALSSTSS
# Protocol: Adherent CHO cells expressing hCRTH2 (Euroscreen, Belgium) were cultured in 225 cm2 cell culture flasks (Corning, USA) in 30 ml of medium. After two rinses of phosphate buffered saline (PBS), cells were harvested in 10 ml of PBS containing 1 mM EDTA, centrifuged at 500×g for 5 min at 4° C. and frozen at −80° C. The pellet was re-suspended in 50 mM Tris-HCl, pH 7.4, 2 mM EDTA, 250 mM Sucrose, containing protease inhibitor cocktail tablets, (Complete EDTA-free, Roche, Germany) and incubated 30 min at 4° C. Cells were disrupted by nitrogen cavitation (Parr Instruments, USA) at 4° C. (800 p.s.i. for 30 min), and centrifuged at 500×g for 10 min at 4° C. Pellet containing nuclei and cellular debris was discarded and supernatant was centrifuged 60 min at 4° C. at 45000×g. Membrane pellet was re-suspended in storage buffer (10 mM HEPES/KOH pH 7.4, 1 mM EDTA, 250 mM sucrose, protease inhibitor cocktail tablets) using Dounce homogenization and frozen in liquid nitrogen, and stored at −80° C.
# The inhibitory activity can be investigated by a radioligand binding Scintillation Proximity Assay (SPA) (Sawyer et al., Br. J. Pharmocol 2002, 137, 1163-72). The SPA radioligand binding assay was performed at room temperature in binding buffer (10 mM HEPES/KOH pH 7.4, 10 mM MnC12, with protease inhibitor cocktail tablets), containing 1.5 nM [3H]PGD2 (Perkin Elmer), 10-50 μg/ml of hCRTH2—CHO cell membrane protein and 2 mg/ml of Wheat-germ agglutinin Scintillation Proximity Assay beads (RPNQ0001, GE-Healthcare) in a final volume of 100 μl in 96 well plates (Corning, USA). Non-specific binding was determined in the presence of 10 μM PGD2 (Cayman, USA). Competing Compounds of Formula (I) were diluted in dimethylsulphoxide so that the total volume of dimethylsulfoxide was kept constant at 1% dimethylsulphoxide (Me2SO). Serial dilutions of 100 μM to 100 pM were prepared and 10 μl each of the compounds of Formula (I) stock solutions were added to the binding assay reagents and incubated for 90 min with agitation at room temperature. Binding activity was determined by using a 1450 Micro-beta scintillation counter (Wallac, UK).
# [2] = In vivo pharmacokinetic evaluation in mouse; parameters: species or system C57BL/6 female mice; settings: mice
# Protocol: (§1) In order to study the pharmacokinetic (PK) profile of test compounds in vivo, Sprague Dawley male rats or C57BL/6 female mice were dosed intravenously or after oral gavage. For both species, test compounds were dosed in solution at 1 mg/kg for i.v. route (10% ethanol, 10% N,N-dimethylacetamide, 30% propylene glycol, 50% water, v/v) and in suspension at 5 mg/kg (0.5% carboxymethylcellulose suspension, containing 0.25% Tween 20 in water) for oral gavage. PK profile in rat was obtained from 3 animals per dosing route and mouse PK profile was determined from 3 animals for each time points. The volume of administration was 2 mL/kg for i.v. dosing in both species and either 5 mL/kg (rat) or 10 mL/kg (mouse) for oral gavage. Blood samples (100 µL/time point) were collected at 0.083 (5 min), 0.25, 0.5, 1, 4, 7 and 24 hours post-dose for i.v. dosing, and at 0.5, 1, 4, 7 and 24 h for oral dosing, into heparin-Li+ containing tubes. For rats, all blood samples were collected trough a catheter in the carotid artery (placed in the artery the day before the experiment), under light isoflurane anesthesia, and stored on ice until centrifugation and plasma isolation. For mouse, blood samples were collected from intracardiac puncture at sacrifice at each time point and processed as described above for the rat. Plasma samples were stored frozen until analysis (−20° C. to −70° C.). For bioanalysis, samples were processed by protein precipitation (acetonitrile, formic acid 0.1%, addition of 3 volumes) after addition of one internal standard and analysed using a sensitive and selective LC/MS/MS method. An aliquot of the resulting supernatant was subject to LC/MS/MS analysis using a reverse phase column (Waters Xterra, C8, (3.5 μm particle size, 2.1×50 mm) and a short gradient (1 min) from (Solvent A) 85% water, 15% acetonitrile and 0.1% formic acid to (Solvent B) 90% acetonitrile, 10% water and 0.1% formic acid followed by isocratic conditions of Solvent B for 3.5 min at 0.4 mL/min. Column effluent was monitored using a Sciex API 4000 triple quadrupole mass spectrometer with a Turbo V electrospray ion source. Unknown concentrations of test compounds were determined using a calibration curve ranging from 1 to 3000 ng/mL.
# [3] = biological target: T1, CRTH2; test: PGD2-induced eosinophil cell shape assay in human whole blood; assay type: cell-based; parameters: endogenous in cells; host or cells: eosinophils in human whole blood from healthy volunteers; settings: 10 nM PGD2
# Protocol: The test compounds were diluted in dimethylsulphoxide so that the total volume of dimethylsulfoxide was kept constant at 2% dimethylsulphoxide (Me2SO). Serial dilutions of 200 μM to 0.09 μM were prepared. Samples of 90 μl of human blood from healthy volunteers (Centre de Transfusion Sanguine de Genève) were pre-incubated in polypropylene Falcon tubes (BD 352063) for 20 minutes in a water bath at 37° C. with 10 μl of diluted compounds. For CRTH2 activation, 100 μl PGD2 (Cayman 12010) at 20 nM was added (10 nM final) to each tube and cells were maintained at 37° C. For negative control cells were treated with PBS. After 10 minutes, cell activation was stopped with 120 μl Formaldehyde 10% (4% final, Fluka 41650) and cells were rested for 10 minutes at room temperature. Fixed cells were transferred into polypropylene tubes and then treated for 1 hour in a water bath at 37° C. with 2 ml of Triton—Surfact-Amps X-100 (Pierce 28314) at 0.166% (0.13% Triton final). After several washes with PBS (red cells lysed progressively during washes, two washes are necessary), cells were analyzed by flow cytometry on a FACSCalibur.
# [4] = In vivo pharmacokinetic evaluation in rat; parameters: species or system Sprague Dawley male rats; settings: rats
# Protocol: as §1
# [5] = 1.5 nM [3H]PGD2, hCRTH2-CHO membranes, SPA, read-out: IC50 binding
# [6] = oral bioavailability, 5 mg/kg po, 1 mg/kg i.v.
"IC50 [1, 5] [nM]",SMILES,further results
148,"Cc1onc(-c2ccccc2)c1CN1C(=O)N(C)C2(C1=O)C(=O)N(CC(=O)O)c1ccc(Cl)cc12 (stereo not drawn) [Example 7, [5′-chloro-3-methyl-1-[(5-methyl-3-phenylisoxazol-4-yl)methyl]-2,2′,5-trioxospiro[imidazolidine-4,3′-indol]-1′(2′H)-yl]acetic acid]",
62,"CN1C(=O)N(Cc2cc(Cl)ccc2F)C(=O)C12C(=O)N(CC(=O)O)c1ccc(Cl)cc12 (stereo not drawn) [Example 1, [5′-chloro-1-(5-chloro-2-fluorobenzyl)-3-methyl-2,2′,5-trioxospiro[imidazolidine-4,3′-indol]-1′(2′H)-yl]acetic acid]",
123,"CN1C(=O)N(Cc2cn(-c3ccccc3)nc2-c2ccccc2)C(=O)C12C(=O)N(CC(=O)O)c1ccc(Cl)cc12 (stereo not drawn) [Example 6, [5′-chloro-1-[(1,3-diphenyl-1H-pyrazol-4-yl)methyl]-3-methyl-2,2′,5-trioxospiro[imidazolidine-4,3′-indol]1′(2′H)-yl]acetic acid]",
916,"CN1C(=O)N(CCc2cccc(F)c2)C(=O)C12C(=O)N(CC(=O)O)c1ccc(Cl)cc12 (stereo not drawn) [Example 13, [15′-chloro-1-[2-(3-fluorophenyl)ethyl]-3-methyl-2,2′,5-trioxospiro[imidazolidine-4,3′-indol]-1′(2′H)-yl]acetic acid]",
,"O=C(O)CN1C(=O)C2(NC(=O)N(Cc3cc(Cl)ccc3F)C2=O)c2cc(Cl)ccc21 (single isomer, unassigned; (+)) [(+)-Enantiomer, (+)-[5′-Chloro-1-(5-chloro-2-fluorobenzyl)-2,2′,5-trioxospiro[imidazolidine-4,3′-indol]-1′(2′H)-yl]acetic acid, reference compound]","Cmax ([2]; female, C57BL/6, mouse, plasma, po, 5 mg/Kg): 113 ng/mL; Fz in mice [2, 6]: 6%; IC50 [3]: 50 nM; IC50 ([1]; comparison table with (+)-Enantiomer, read-out: Binding IC50): 21 nM; activity on DP2 ([1]; first eluting enantiomer compared with second eluting enantiomer): better activity; Cmax ([4]; male, Sprague Dawley, rat, plasma, po, 5 mg/Kg): 151 ng/mL; Fz in rats [4, 6]: 5.3%"
940,"CN1C(=O)N(CCc2ccccc2F)C(=O)C12C(=O)N(CC(=O)O)c1ccc(Cl)cc12 (stereo not drawn) [Example 14, [15′-chloro-1-[2-(2-fluorophenyl)ethyl]-3-methyl-2,2′,5-trioxospiro[imidazolidine-4,3′-indol]-1′(2′H)-yl]acetic acid]",
551,"CN1C(=O)N(CCc2cccc(Cl)c2)C(=O)C12C(=O)N(CC(=O)O)c1ccc(Cl)cc12 (stereo not drawn) [Example 15, [15′-chloro-1-[2-(3-chlorophenyl)ethyl]-3-methyl-2,2′,5-trioxospiro[imidazolidine-4,3′-indol]-1′(2′H)-yl]acetic acid]",
144,"CCCN1C(=O)N(Cc2cc(Cl)ccc2F)C(=O)C12C(=O)N(CC(=O)O)c1ccc(Cl)cc12 (single isomer, unassigned) [Example 4]",
628,"CC(C)c1nc(CN2C(=O)N(C)C3(C2=O)C(=O)N(CC(=O)O)c2ccc(Cl)cc23)cs1 (stereo not drawn) [Example 5, [5′-chloro-1-[(2-isopropyl-1,3-thiazol-4-yl)methyl]-3-methyl-2,2′,5-trioxospiro[imidazolidine-4,3′-indol]-1′(2′H)-yl]acetic acid]",
336,"CCN1C(=O)N(Cc2cc(Cl)ccc2F)C(=O)C12C(=O)N(CC(=O)O)c1ccc(Cl)cc12 (single isomer, unassigned; (+)) [Example 3, [(+)-5′-chloro-1-(5-chloro-2-fluorobenzyl)-3-ethyl-2,2′,5-trioxospiro[imidazolidine-4,3′-indol]-1′(2′H)-yl]acetic acid]",
363,"COc1c(C)cnc(CN2C(=O)N(C)C3(C2=O)C(=O)N(CC(=O)O)c2ccc(Cl)cc23)c1C (stereo not drawn) [Example 9, [5′-chloro-1-[(4-methoxy-3,5-dimethylpyridin-2-yl)methyl]-3-methyl-2,2′,5-trioxospiro[imidazolidine-4,3′-indol]-1′(2′H)-yl]acetic acid]",
498,"CN1C(=O)N(Cc2cc(F)ccc2F)C(=O)C12C(=O)N(CC(=O)O)c1ccc(Cl)cc12 (stereo not drawn) [Example 10, [5′-chloro-1-(2,5-difluorobenzyl)-3-methyl-2,2′,5-trioxospiro[imidazolidine-4,3′-indol]-1′(2′H)-yl]acetic acid]",
44,"CN1C(=O)N(Cc2csc(-c3ccccc3)n2)C(=O)C12C(=O)N(CC(=O)O)c1ccc(Cl)cc12 (stereo not drawn) [Example 8, [5′-chloro-3-methyl-2,2′,5-trioxo-1-[(2-phenyl-1,3-thiazol-4-yl)methyl] Spiro[imidazolidine-4,3′-indol]-1′(2′H)-yl]acetic acid]",
945,"CN1C(=O)N(Cc2nc3ccccc3s2)C(=O)C12C(=O)N(CC(=O)O)c1ccc(Cl)cc12 (stereo not drawn) [Example 11, [1-(1,3-benzothiazol-2-ylmethyl)-5′-chloro-3-methyl-2,2′,5-trioxospiro[imidazolidine-4,3′-indol]-1′(2′H)-yl]acetic acid]",
740,"CN1C(=O)N(CCc2ccccc2Cl)C(=O)C12C(=O)N(CC(=O)O)c1ccc(Cl)cc12 (stereo not drawn) [Example 12, [5′-chloro-1-[2-(2-chlorophenyl)ethyl]-3-methyl-2,2′,5-trioxospiro[imidazolidine-4,3′-indol]-1′(2′H)-yl]acetic acid]",
